Structures can show the parent of a compound that is named as a salt.
System: SB.msgc-1
Experiment: AC50 for growth inhibition (viability) (log10 M); higher = less potent
Settings: SB.msgc-1 (sporadic gastric cancer)
Method in brief: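 Hereditary or sporadic patient-derived gastric cancer cells (500 cells in 5 μL medium per 1536 well) received 23 nL compound in DMSO by pintool. Dosing was 11 threefold dilutions starting at a final 46 μM. After 48 h, CellTiter-Glo was added for 30 min at room temperature and luminescence read on a ViewLux. Log half-maximal activity concentration came from a four-parameter fit of DMSO-normalised viability, keeping only high-quality curve classes.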

Compound | AC50 for growth inhibition (log10 M)
N[S+](=O)([O-])OC[C@@H]1C[C@@H](n2ccc3c(N[C@H]4CCc5ccccc54)ncnc32)C[C@@H]1O [MLN-4924] | -5.48
CN(C)[C@H]\1[C@@H]2C[C@H]3C(=C(O)\[C@]2(O)C(=O)\C(=C1O)C(N)=O)/C(=O)C4=C(O)C=CC=C4[C@@]3(C)O [Tetracycline hydrochloride] | -5.18
C/C=C/C(=O)N(CC)c1ccccc1C [Crotamiton] | -4.98
NCCCC(N)(C(=O)O)C(F)F (centres undefined) [Eflornithine Hydrochloride] | -4.78
Clc1ccc(C(Cn2ccnc2)OCc2ccc(Sc3ccccc3)cc2)c(Cl)c1 (centres undefined) [Fenticonazole nitrate] | -4.73
CCc1cncnc1N1CCN(Cc2nc3cc(C(F)(F)F)ccc3[nH]2)CC1 | -5.13
Nc1nc2ccc(OC(F)(F)F)cc2s1 [Riluzole] | -4.73
COC1=CC=CC=C1C2=CC=CC(=C2)C/3=C(O)/C4=CC(=C(Cl)C=C4NC3=O)C#N [FASN MRK] | -4.37
Cc1cccc(Nc2nc(-c3ccncc3)cs2)c1 | -4.68
CC(C)c1c(C(=O)Nc2ccccc2)c(-c2ccccc2)c(-c2ccc(F)cc2)n1CC[C@@H](O)C[C@@H](O)CC(=O)[O-] [Atorvastatin calcium] | -4.68
Cc1ccc(C(=O)c2cc(O)c(O)c([N+](=O)[O-])c2)cc1 [Tolcapone] | -4.68
Cc1cc(-c2ccc(CC(=O)Nc3ccc(-c4cccnc4)cc3)cc2)ccn1 [Wnt-C59] | -4.78
CCCC1OC2C[C@H]3[C@@H]4CCC5=CC(=O)C=C[C@]5(C)[C@H]4C(O)C[C@]3(C)[C@]2(C(=O)CO)O1 (some centres undefined) [Budesonide] | -4.68
Cc1cc2c(C(C)C)c(O)c(O)c(C=O)c2c(O)c1-c1c(C)cc2c(C(C)C)c(O)c(O)c(C=O)c2c1O [(-)-Gossypol] | -4.83
FC1=CC=C(SC/2=N/N3\C=N/C(=O)/C(=C3/C=C2)C4=C(Cl)C=CC=C4Cl)C(=C1)F [VX-745] | -4.73
Fc1ccc(Cl)cc1-c1nc(Nc2ccncc2)c2nccnc2n1 [SD-208] | -4.93
C[C@@H]1O[C@@H](O[C@H]\2CC[C@]\3(C)[C@@H]4CC[C@]5(C)[C@@H](CC[C@@]5(O)[C@H]4CCC3=C2)C/6=C/OC(=O)/C=C6)[C@H](O)[C@H](O)[C@@H]1O [Proscillaridin] | -7.68
O=C(Nc1cccc(Br)c1)c1cccc([S+](=O)([O-])N2CCCCCC2)c1 [Ak-7] | -4.73
Cc1ccc(Nc2cc(-c3cccc(N4C(=O)c5ccccc5C4=O)c3)ncn2)cc1N[S+](C)(=O)[O-] [CDK9 inhibitor] | -4.63
CC(=O)N1CCN(c2ccc(OC[C@H]3CO[C@](Cn4ccnc4)(c4ccc(Cl)cc4Cl)O3)cc2)CC1 [Ketoconazole] | -4.83
O=C1NC(=O)/C(=C\c2ccc(-c3ccc(F)cc3)o2)S1 | -4.78
CNC(=O)c1cc(COc2nnc(Nc3ccc(Cl)cc3)c3ccoc23)ccn1 [Telatinib] | -4.78

Compound | AC50 for growth inhibition (log10 M)
O=C1NCCc2[nH]c(-c3ccncc3)cc21 | -5.63
Cn1ccc2cc3c(cc21)CCN3C(=O)Nc1cccnc1 | -5.03
CC/1=C(/C(CC(=O)N1)C2=CC=C(C=C2)C(F)(F)F)C(=O)NC3=C(F)C=C4[NH]N=CC4=C3 (centres undefined) | -5.03
N=C(N)c1ccc(OCCCCCOc2ccc(C(=N)N)cc2)cc1 [Pentamidine isethionate] | -4.83
C[C@H](CCC(=O)O)[C@H]1CC[C@H]2[C@@H]3[C@@H](O)C[C@@H]4C[C@H](O)CC[C@]4(C)[C@H]3CC[C@]12C [Ursodiol] | -5.43
C=CCn1c(=O)c2cnc(Nc3ccc(N4CCN(C)CC4)cc3)nc2n1-c1cccc(C(C)(C)O)n1 [MK-1775] | -6.43
OC1=C(Cl)C=C(N\C2=C(\C(=O)NC2=O)C3=C(C=CC=C3)[N+]([O-])=O)C=C1 | -4.88
CCOC(=O)c1ncn2c1CN(C)C(=O)c1cc(F)ccc1-2 [Flumazenil] | -4.63
C[C@H]1[C@H](O)O[C@@H]2O[C@@]3(C)CC[C@H]4[C@H](C)CC[C@@H]1[C@@]24OO3 [Artenimol] | -5.68
Cc1nnc(N[S+](=O)([O-])c2ccc(N)cc2)s1 [Sulfamethizole] | -5.43
CCOC(=O)N[C@@H]1CC[C@@H]2[C@@H](C1)C[C@H]1C(=O)O[C@H](C)[C@H]1[C@H]2/C=C/c1ccc(-c2cccc(F)c2)cn1 [Vorapaxar] | -4.78
CC(C)CN(C[C@@H](O)[C@H](Cc1ccccc1)NC(=O)O[C@H]1CO[C@H]2OCC[C@H]21)S(=O)(=O)c1ccc(N)cc1 [Darunavir] | -5.63
COC1=CC=C(C=C1)C/2=C(OC3O[C@@H](C)[C@H](O)[C@@H](O)[C@H]3O)/C(=O)C4=C(O2)C(=C(OC5O[C@H](CO)[C@@H](O)[C@H](O)[C@H]5O)C=C4O)CC=C(C)C (some centres undefined) [Icariin] | -4.93
Cc1cc(OCCC[S+](C)(=O)[O-])cc(C)c1-c1cccc(COc2ccc3c(c2)OC[C@H]3CC(=O)O)c1 [TAK-875] | -4.78
Oc1nc(-c2ccc(C(F)(F)F)cc2)nc2c1CSCC2 [NVP-XAV-939] | -4.68
CC(=O)O[C@H]1C[C@@H]2CC[C@@H]3[C@H](CC[C@@]4(C)[C@H]3C[C@H]([N+]3(C)CCCCC3)[C@@H]4OC(C)=O)[C@@]2(C)C[C@@H]1[N+]1(C)CCCCC1 [Pancuronium bromide] | -5.53
COCC1(CO)C(=O)C2CCN1CC2 (centres undefined) [APR-246] | -4.88
CC(N[C@H]1CCCC[C@@H]1NC(=O)c1ccc(Cl)cc1)c1cccc2ccccc12 (some centres undefined) [Calhex 231] | -5.93
C[S+]([O-])c1ccc(-c2nc(-c3ccc(F)cc3)c(-c3ccncc3)[nH]2)cc1 (centres undefined) | -4.62
CN(CCOc1ccc(CC2SC(=O)NC2=O)cc1)c1ccccn1 (centres undefined) [Rosiglitazone] | -5.18
CN(C)CCN(C)C(=O)c1ccc(NC(=O)Nc2ccc(-c3nc(N4CCOCC4)c4ccn(CC(F)(F)F)c4n3)cc2)cc1 | -5.18
Oc1ccc(C2CCN(c3ccnc4ccccc34)CC2)cc1O | -4.63

Compound | AC50 for growth inhibition (log10 M)
COc1cc(Nc2c(C#N)cnc3cc(OCCCN4CCN(C)CC4)c(OC)cc23)c(Cl)cc1Cl [Bosutinib] | -5.58
O=C1Nc2ccc(I)cc2/C1=C/c1cc(Br)c(O)c(Br)c1 [GW-5074] | -4.93
CC[C@H](CO)Nc1nc(NCc2ccccc2)c2ncn(C(C)C)c2n1 [Seliciclib] | -4.68
Cc1ccc(-c2cc(C(F)(F)F)nn2-c2ccc([S+](N)(=O)[O-])cc2)cc1 [Celecoxib] | -4.78
CCC[S+](=O)([O-])Nc1ccc(F)c(C(=O)c2c[nH]c3ncc(Cl)cc23)c1F [PLX-4720] | -4.83
O=C(Nc1ccccc1Br)N[C@@H]1CCN(c2ccc(C(F)(F)F)cn2)C1 | -4.73
CC1COC2=C3N1\C=C(C(O)=O)/C(=O)C3=CC(=C2N4CCN(C)CC4)F (centres undefined) [Ofloxacin] | -4.73
CC[S+](=O)([O-])c1cccc(-c2cc(C(=O)NC3CCN(C)CC3)c(C)c3[nH]c4ncc(C)cc4c23)c1 [TAK-901] | -5.33
Cc1onc(-c2ccccc2Cl)c1C(=O)N[C@@H]1C(=O)N2[C@@H]1SC(C)(C)[C@@H]2C(=O)[O-] [Sodium cloxacillin] | -5.48
COc1cc2c(Nc3ccc(NC(=O)c4ccccc4)cc3)ncnc2cc1OCCCN1CCOCC1 | -4.83
CC1=CC=C2N=C(NC(=O)CS\C3=N\C4=C(\SCC4)C(=O)N3C5=CC=CC=C5)SC2=C1 [IWP-2] | -5.18
Clc1ccc(-c2nc3sccn3c2/C=N/OCc2ccc(Cl)c(Cl)c2)cc1 [CITCO] | -4.73
COc1ccc2cc1Oc1ccc(cc1)C[C@H]1c3cc(c(OC)cc3CCN1C)Oc1c(OC)c(OC)cc3c1[C@H](C2)N(C)CC3 [Tetrandrine] | -4.73
C=C1C(=O)OC2/C=C(/C)CC/C=C(/C)CCC12 (centres undefined) [Costunolide] | -4.68
C=CC[C@@H]1/C=C(\C)C[C@H](C)C[C@H](OC)[C@H]2O[C@@](O)(C(=O)C(=O)N3CCCC[C@H]3C(=O)O[C@H](/C(C)=C/[C@@H]3CC[C@@H](O)[C@H](OC)C3)[C@H](C)[C@@H](O)CC1=O)[C@H](C)C[C@@H]2OC [FK-506] | -5.18
CC[C@H](C)C(=O)O[C@H]1C[C@@H](C)\C=C2\C=C/[C@H](C)[C@H](CC[C@@H]3C[C@@H](O)CC(=O)O3)[C@@H]12 [Lovastatin] | -4.73
Clc1ccc(C(c2ccc(Cl)cc2)[n+]2ccn(CC(OCc3ccc(Cl)cc3Cl)c3ccc(Cl)cc3Cl)c2)cc1 (centres undefined) [Calmidazolium chloride] | -4.68
CN1\C=N/C2=CC=C(NC3=CC(=CC=C3C)NC(=O)C4=CC(=CC=C4)C(C)(C)C#N)C=C2C1=O [AZ-628] | -5.23
CNC(=O)CN1CCC(Oc2cc3c(Nc4cccc(Cl)c4F)ncnc3cc2OC)CC1 [Sapitinib] | -7.98
COc1cc(N2CCC(N3CCN(C)CC3)CC2)ccc1Nc1ncnc(Nc2ccccc2[S+](=O)([O-])C(C)C)n1 [ASP-3026] | -4.88

Reference: the supplement of paper PMC5412046
